Results published in PMC8924211 (Nature Communications, 2022).
Numbering of substitutions follows the chain as printed.

What was measured:
[1] = molecular target: T1, GAL2R mutants (Homo sapiens, UniProt O43603, L266A); assay: Calcium assay, HEK293/Gα16 cells, GAL2R mutants; format: cell-based; details: GAL2R L266ECL3A
T1 construct: expressed in transfected cells; host or cells: HEK293
T1 sequence (O43603 1-387 L266A): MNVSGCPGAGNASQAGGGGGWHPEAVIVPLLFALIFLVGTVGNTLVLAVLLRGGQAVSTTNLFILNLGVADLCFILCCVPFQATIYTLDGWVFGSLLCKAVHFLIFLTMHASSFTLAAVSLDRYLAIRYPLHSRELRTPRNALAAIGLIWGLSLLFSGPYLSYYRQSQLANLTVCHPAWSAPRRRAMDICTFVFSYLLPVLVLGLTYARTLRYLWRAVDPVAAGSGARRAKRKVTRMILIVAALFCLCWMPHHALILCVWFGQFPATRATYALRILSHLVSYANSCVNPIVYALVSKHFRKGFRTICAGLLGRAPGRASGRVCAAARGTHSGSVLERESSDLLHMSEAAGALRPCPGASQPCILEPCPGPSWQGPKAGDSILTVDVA

[2] = molecular target: T2, GAL2R mutants (Homo sapiens, UniProt O43603, L255A); assay: Calcium assay, HEK293/Gα16 cells, GAL2R mutants; format: cell-based; details: GAL2R L2556.54A
T2 construct: expressed in transfected cells; host or cells: HEK293
T2 sequence (O43603 1-387 L255A): T1 sequence (O43603 1-387 L266A) with L255A, A266L

[3] = molecular target: T3, GAL2R mutants (Homo sapiens, UniProt O43603, L169A); assay: Calcium assay, HEK293/Gα16 cells, GAL2R mutants; format: cell-based; details: GAL2R L169ECL2A
T3 construct: expressed in transfected cells; host or cells: HEK293
T3 sequence (O43603 1-387 L169A): T1 sequence (O43603 1-387 L266A) with L169A, A266L

[4] = molecular target: T4, GAL2R mutants (Homo sapiens, UniProt O43603, Y86A); assay: Calcium assay, HEK293/Gα16 cells, GAL2R mutants; format: cell-based; details: GAL2R Y862.65A
T4 construct: expressed in transfected cells; host or cells: HEK293
T4 sequence (O43603 1-387 Y86A): T1 sequence (O43603 1-387 L266A) with Y86A, A266L

[5] = molecular target: GAL1R (Homo sapiens, UniProt P47211); assay: Calcium assay, HEK293/Gα16 cells, WT GAL1R; format: cell-based; details: HEK293/Gα16, calcium response (Supplementary Fig. 9a)
Chain of GAL1R (P47211 whole entry): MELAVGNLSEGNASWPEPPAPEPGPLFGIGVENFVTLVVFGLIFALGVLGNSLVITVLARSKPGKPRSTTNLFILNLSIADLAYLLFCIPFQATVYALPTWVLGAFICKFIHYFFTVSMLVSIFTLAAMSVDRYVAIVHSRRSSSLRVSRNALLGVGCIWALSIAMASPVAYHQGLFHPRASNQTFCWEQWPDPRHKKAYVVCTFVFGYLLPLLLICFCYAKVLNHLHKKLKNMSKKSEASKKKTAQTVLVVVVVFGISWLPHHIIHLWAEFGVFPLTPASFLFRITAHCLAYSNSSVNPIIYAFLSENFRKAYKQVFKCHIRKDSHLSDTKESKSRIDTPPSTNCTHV

[6] = system: GAL2R over GAL1R; details: cross-reactivity to galanin receptors; cited from earlier work
Text: In contrast, L^4P contacts with equivalent ECL2 residues with weaker hydrophobicity (L169^ECL2, A170^ECL2, and L172^ECL2) in GAL2R (Fig. 3e, Supplementary Fig. 4b). The structural observation is coincident with our peptide truncation assay.

[7] = molecular target: T5, GAL2R (Homo sapiens, UniProt O43603); assay: Calcium assay, HEK293/Gα16 cells, WT GAL2R; format: cell-based
T5 construct: expressed in transfected cells; host or cells: HEK293/Gα16
T5 sequence (O43603 1-387): T1 sequence (O43603 1-387 L266A) with A266L

[8] = response of 100 μM spexin compared to WT, mean ± S.E.M.

spexin
Emax [1, 8]: 103.14±6.2% | EC50 ([1]; spexin, replicate 1): 25.14 µM | Emax ([1]; spexin, replicate 1): 98.5714% | EC50 ([1]; spexin, replicate 2): 15.28 µM | Emax ([1]; spexin, replicate 2): 95.5224% | EC50 ([1]; spexin, replicate 3): 11.99 µM | Emax ([1]; spexin, replicate 3): 115.328% | Emax [2, 8]: 26.65±5.9% | Emax ([2]; spexin, replicate 1): 16.7892% | EC50 ([2]; spexin, replicate 2): 0.2454 µM | Emax ([2]; spexin, replicate 2): 26.0726% | EC50 ([2]; spexin, replicate 3): 0.8451 µM | Emax ([2]; spexin, replicate 3): 37.0775% | Emax [3, 8]: 94.58±11.1% | EC50 ([3]; spexin, replicate 1): 7.173 µM | Emax ([3]; spexin, replicate 1): 77.1819% | EC50 ([3]; spexin, replicate 2): 5.137 µM | Emax ([3]; spexin, replicate 2): 91.205% | Emax ([3]; spexin, replicate 3): 115.35% | Emax ([4]; response of 100 μM spexin compared to WT): NR (NR, no response, refers to response < 10% compared to WT receptor (spexin at 100 μM)) | Emax ([4]; spexin, replicate 1): no response | Emax ([4]; spexin, replicate 2): no response | Emax ([4]; spexin, replicate 3): no response | activation of GAL1R [5]: did not activate | affinity for GALR2 versus GALR1 [6]: high affinity for GALR2 but not GALR1 | Emax [7, 8]: 100±4.9% | EC50 ([7]; spexin, replicate 1): 0.3268 µM | Emax ([7]; spexin, replicate 1): 101.879% | EC50 ([7]; spexin, replicate 2): 0.1775 µM | Emax ([7]; spexin, replicate 2): 107.462% | EC50 ([7]; spexin, replicate 3): 0.08138 µM | Emax ([7]; spexin, replicate 3): 90.6585%
